Measurements as given in patent US7317028B2, “Cell differentiation inducer” (Schering Aktiengesellschaft, priority 1996, dated 2008).

Assays:
A2780 cells = assay: Test for induction of differentiation in A2780 cells (ALP activity, ALPmin); assay type: cell-based, human; details: Homo sapiens, 72 h; A2780 cells, 3 days incubation; minimum concentration of the drug inducing increase of ALP activity
Protocol: Increase of alkaline phosphatase (ALP) activity is known as an indicator for differentiation of human colon cancer cells. […] Thus, differentiation inducing action was evaluated using ALP activity as an indicator.
To each well of a 96-well plate was placed 0.1 mL of A2780 cells (15,000 cells/well) and the next day was added 0.1 mL of a sequential dilute of test solution with the medium. […] The reaction was quenched with 0.05 mL/well of 3N sodium hydroxide aq. For each well, an absorbance at 405 nm was measured to determine the minimum concentration of the drug inducing increase of ALP activity (ALPmin).

Row | Structure (SMILES) | melting point | minimal effective concentration (A2780 cells) [µM]
1 | Nc1ccccc1COC(=O)NCc1ccc(C(=O)Nc2ccccc2N)cc1 [Example 71, N-(2-aminophenyl)-4-[N-(2-aminophenyl)methoxycarbonylaminomethyl]benzamide] | 149 to 151 °C (dec.) | 10
2 | Nc1ccccc1NC(=O)c1ccc(CNC(=O)OCc2ccc(Cl)nc2)cc1 [Example 59, N-(2-aminophenyl)-4-[N-(6-chloropyridin-3-yl)methoxycarbonylaminomethyl]benzamide] | 180 to 185 °C | 3
3 | Cl.Nc1ccccc1NC(=O)c1ccc(CNC(=O)c2ccccc2)cc1 [Example 1, N-(2-aminophenyl)-4-(N-benzoylaminomethyl)benzamide hydrochloride] | 206 to 209 °C | 1
4 | Nc1cccc(COC(=O)NCc2ccc(C(=O)Nc3ccccc3N)cc2)c1 [Example 73, N-(2-aminophenyl)-4-[N-(3-aminophenyl)methoxycarbonylaminomethyl]benzamide] | 149 to 153 °C (dec.) | 3
5 | COc1ccc(C(=O)NCc2ccc(C(=O)Nc3ccccc3N)cc2)cc1 [Example 6, N-(2-aminophenyl)-4-[N-(4-methoxybenzoyl)aminomethyl]benzamide] | 149 to 151 °C | 1
6 | Nc1ccccc1NC(=O)c1ccc(NC(=O)Cc2ccc([N+](=O)[O-])cc2)cc1 [Example 104, N-(2-aminophenyl)-4-[(4-nitrophenylacetyl)amino]benzamide] | 222 to 226 °C | 1
7 | Nc1ccccc1NC(=O)c1ccc(CNC(=O)OCc2ccccn2)cc1 [Example 51, N-(2-aminophenyl)-4-[N-(pyridin-2-yl)methoxycarbonylaminomethyl]benzamide] | 166 to 167 °C | 1
8 | Nc1ccccc1NC(=O)c1ccc(CNC(=O)c2ccc(C(F)(F)F)cc2)cc1 [Example 9, N-(2-aminophenyl)-4-[N-(4-trifluoromethylbenzoyl)aminomethyl]benzamide] | 243 to 246 °C | 1
9 | Nc1ccccc1NC(=O)c1ccc(CNC(=O)Oc2ccccc2)cc1 [Example 68, N-(2-aminophenyl)-4-[N-(phenoxycarbonyl)aminomethyl]benzamide] | 174 to 175 °C | 3
10 | Nc1ccccc1NC(=O)c1ccc(CCC(=O)NCc2cccnc2)cc1 [Example 97, N-(2-aminophenyl)-4-[2-[N-(3-picolyl)aminocarbonyl]ethyl]benzamide] | 168 to 170 °C | 0.1
11 | Nc1ccccc1NC(=O)c1ccc(CNC(=O)OCCc2ccccn2)cc1 [Example 52, N-(2-aminophenyl)-4-[N-[2-(pyridin-2-yl)ethoxycarbonyl]aminomethyl]benzamide] | 146 to 148 °C | 1
12 | Nc1ccccc1NC(=O)c1ccc(CNC(=O)Cc2cccnc2)cc1 [Example 29, N-(2-aminophenyl)-4-[N-(pyridin-3-yl)acetylaminomethyl]benzamide] | 127 °C | 10
13 | Cc1cc(C(=O)NCc2ccc(C(=O)Nc3ccccc3N)cc2)sn1 [Example 26, N-(2-aminophenyl)-4-[N-(3-methylisothiazol-5-yl)carbonylaminomethyl]benzamide] | 168 to 169 °C | 1
14 | Nc1ccccc1NC(=O)c1ccc(CNC(=O)c2cc3ccncc3o2)cc1 [Example 39, N-(2-aminophenyl)-4-[N-(furo[2,3-c]pyridin-2-yl)carbonylaminomethyl]benzamide] | 210 °C (dec.) | 0.1
15 | Nc1ccccc1NC(=O)c1ccc(CNC(=O)OCc2ccncc2)cc1 [Example 60, N-(2-aminophenyl)-4-[N-(pyridin-4-yl)methoxycarbonylaminomethyl]benzamide] | 180 to 183 °C | 3
16 | Cc1ccc(C(=O)NCc2ccc(C(=O)Nc3ccccc3N)cc2)cn1 [Example 16, N-(2-aminophenyl)-4-[N-(6-methylnicotinoyl)aminomethyl]benzamide] | 186 to 190 °C (dec.) | 3
17 | Nc1cccc(CC(=O)NCc2ccc(C(=O)Nc3ccccc3N)cc2)c1 [Example 28, N-(2-aminophenyl)-4-[N-(3-aminophenyl)acetylaminomethyl]benzamide] | 171 to 176 °C | 10
18 | Nc1ccccc1NC(=O)c1ccc(CNC(=O)c2ccc(Cl)nc2)cc1 [Example 18, N-(2-aminophenyl)-4-[N-(6-chloronicotinoyl)aminomethyl]benzamide] | 205 to 208 °C (dec.) | 3
19 | Cn1cncc1COC(=O)NCc1ccc(C(=O)Nc2ccccc2N)cc1 [Example 74, N-(2-aminophenyl)-4-[N-(1-methylimidazol-5-yl)methoxycarbonylaminomethyl]benzamide] | 162 to 165 °C (dec.) | 10
20 | Cc1ncccc1COC(=O)NCc1ccc(C(=O)Nc2ccccc2N)cc1 [Example 56, N-(2-aminophenyl)-4-[N-(2-methylpyridin-3-yl)methoxycarbonylaminomethyl]benzamide] | 164 to 165 °C | 3
21 | COc1ccc(N)c(NC(=O)c2ccc(CNC(=O)COc3cccnc3)cc2)c1 [Example 33, N-(2-amino-5-methoxyphenyl)-4-[N-(pyridin-3-yl)oxyacetylaminomethyl]benzamide] | 141 to 144 °C | 0.3
22 | Nc1ccccc1NC(=O)c1ccc(CNC(=O)OCCc2cccnc2)cc1 [Example 54, N-(2-aminophenyl)-4-[N-[2-(pyridin-3-yl)ethoxycarbonyl]aminomethyl]benzamide] | 120 to 125 °C | 1
23 | Nc1ccccc1CC(=O)Nc1ccc(C(=O)Nc2ccccc2N)cc1 [Example 105, N-(2-aminophenyl)-4-[(2-aminophenylacetyl)amino]benzamide] | 177 to 182 °C (dec.) | 1
24 | Nc1ccccc1NC(=O)c1ccc(NC(=O)Cc2ccccc2)cc1 [Example 100, N-(2-aminophenyl)-4-(phenylacetylamino)benzamide] | 232 to 237 °C | 1

More lines, main results first:

Row | melting point | Structure (SMILES) | minimal effective concentration (A2780 cells) [µM]
25 | 196 °C (dec.) | Nc1ccccc1NC(=O)c1ccc(NC(=O)CC(=O)Nc2cccnc2)cc1 [Example 122, N-(2-aminophenyl)-4-[3-[N-(pyridin-3-yl)amino]-1,3-dioxopropylamino]benzamide] | 0.03
26 | 184 to 186 °C | Nc1ccccc1NC(=O)c1ccc(NC(=O)CCc2cccnc2)cc1 [Example 112, N-(2-aminophenyl)-4-[[3-(pyridin-3-yl)propanoyl]amino]benzamide] | 0.1
27 | 230 °C (dec.) | Nc1ccccc1NC(=O)c1ccc(-n2cc(COc3cccc([N+](=O)[O-])c3)oc2=O)cc1 [Example 141, N-(2-aminophenyl)-4-[5-(3-nitrophenoxy)methyl-1,3-oxazolin-2-on-3-yl]benzamide] | 1
28 | 190 to 194 °C | Nc1ccccc1NC(=O)c1ccc(NC(=O)CCC(=O)c2cccnc2)cc1 [Example 121, N-(2-aminophenyl)-4-[4-(pyridin-3-yl)-1,4-dioxobutylamino]benzamide] | 3
29 | 186 to 189 °C | Nc1ccccc1NC(=O)c1ccc(NC(=O)COCc2ccsc2)cc1 [Example 124, N-(2-aminophenyl)-4-[N-(thiophen-3-yl)methoxyacetylamino]benzamide] | 3
30 | 160 °C (dec.) | Nc1ccccc1NC(=O)c1ccc(NC(=O)CNCc2cccnc2)cc1 [Example 115, N-(2-aminophenyl)-4-[[N-(pyridin-3-yl)methylamino]acetylamino]benzamide] | 0.01
31 | 154 to 155 °C | CN(CC(=O)Nc1ccc(C(=O)Nc2ccccc2N)cc1)Cc1cccnc1 [Example 119, N-(2-aminophenyl)-4-[[N-(pyridin-3-yl)methyl-N-methylamino]acetylamino]benzamide] | 3
32 | 180 to 183 °C (dec.) | CN(C(=O)COCc1cccnc1)c1ccc(C(=O)Nc2ccccc2N)cc1 [Example 125, N-(2-aminophenyl)-4-[N-methyl-N-(pyridin-3-yl)methoxyacetylamino]benzamide] | 0.1
33 | 172 to 174 °C | Nc1ccccc1NC(=O)c1ccc(-n2cc(COCc3ccccn3)oc2=O)cc1 [Example 142, N-(2-aminophenyl)-4-[5-(pyridin-2-yl)methyloxymethyl-1,3-oxazolin-2-on-3-yl]benzamide] | 0.1
34 | 145 °C (dec.) | Nc1ccccc1NC(=O)c1ccc(NC(=O)CN(Cc2cccnc2)C(=O)C(F)(F)F)cc1 [Example 114, N-(2-aminophenyl)-4-[[N-(pyridin-3-yl)methyl-N-trifluoroacetylamino]acetylamino]benzamide] | 3
35 | 160 to 164 °C (dec.) | Nc1ccccc1NC(=O)c1ccc(-n2cc(COCc3cccnc3)oc2=O)cc1 [Example 140, N-(2-aminophenyl)-4-[5-(pyridin-3-yl)methyloxymethyl-1,3-oxazolin-2-on-3-yl]benzamide] | 0.3
